Experimental data from US9440951B2, “Quinolone compound” (priority 2011, dated 2016).
≈ marks a conversion by molar mass, not a printed value. Like-named read-outs stand apart in the source and are kept apart here.

What was measured:
C. difficile = test: In vitro antibacterial activity: MIC by broth microdilution; format: cell-based, Clostridium difficile; conditions: Clostridioides difficile, anaerobic, tested range 0.008 to 8 μg/ml
Procedure: MICs (minimum inhibitory concentrations) were determined by the broth microdilution technique with 96-well microdilution plates. […] The plates were filled with 100 μl of reinforced clostridial medium (Oxoid; Unipath Ltd., Basingstoke, United Kingdom) per well containing the final antibiotic concentrations. The plates were thawed and preincubated for 3 hours in an anaerobic chamber (Thermal, USA) containing an atmosphere of 80% N2, 15% CO2, and 5% H2. The bacterial inocula were prepared by suspending growth from 48 hours cultures in reinforced clostridial medium. The final inoculum was approximately 1.0×10^5-6 CFU/well. The plates were incubated for 48 hours at 37° C. in the anaerobic chamber. The MIC was defined as the lowest antibiotic concentration that inhibited visible growth. Ciprofloxacin, vancomycin and metronidazole were used as a positive control.

[1] = strain C. difficile ATCC43255, 48 hours at 37° C., read-out: MIC against C. difficile ATCC43255
[2] = strain C. difficile ATCC70092, 48 hours at 37° C., read-out: MIC against C. difficile ATCC70092
[3] = strain C. difficile ATCC7000057, 48 hours at 37° C., read-out: MIC against C. difficile ATCC7000057
[4] = strain C. difficile IQCC23903, 48 hours at 37° C., read-out: MIC against C. difficile IQCC23903

Row | MIC (C. difficile; [1]) [µg/mL] | MIC (C. difficile; [2]) [µg/mL] | MIC (C. difficile; [3]) [µg/mL] | MIC (C. difficile; [4]) [µg/mL] | melting point [°C] | Compound
1 | 0.032 to 0.125 (≈ 0.0789 to 0.308 µM) | 0.032 to 0.125 (≈ 0.0789 to 0.308 µM) | 0.032 to 0.125 (≈ 0.0789 to 0.308 µM) | 0.063 to 0.25 (≈ 0.155 to 0.617 µM) | > 300 | Cc1c(-c2cnc3[nH]c(=O)ccc3c2)c(F)cc2c(=O)c(C(=O)O)cn(C3CC3)c12 [Compound 1-2]
2 | 0.016 to 0.063 (≈ 0.0423 to 0.167 µM) | 0.008 to 0.063 (≈ 0.0211 to 0.167 µM) | 0.016 to 0.063 (≈ 0.0423 to 0.167 µM) | 0.032 to 0.063 (≈ 0.0846 to 0.167 µM) |  | Cc1c(-c2cnc(N)c(C#N)c2)c(F)cc2c(=O)c(C(=O)O)cn(C3CC3)c12 [Compound 2-18]
3 | 0.008 to 0.032 (≈ 0.0194 to 0.0777 µM) | 0.008 to 0.032 (≈ 0.0194 to 0.0777 µM) | 0.016 to 0.032 (≈ 0.0389 to 0.0777 µM) | 0.008 to 0.063 (≈ 0.0194 to 0.153 µM) | 307 to 311 | Cc1c(-c2cc(Cl)c3nccn3c2)c(F)cc2c(=O)c(C(=O)O)cn(C3CC3)c12 [Compound 3-11]
